For 7 compounds, mutagenic call results are on record in PubChem BioAssay AID1259407 (Chemical Carcinogenesis Research Information System (CCRIS), 2018).

In this data set the test system is CCRIS mutagenicity, Ames/micronucleus/aberration tests. Briefly: CCRIS mutagenicity studies.
Where [1] appears, read: Test System: AMES SALMONELLA TYPHIMURIUM, Strain/Indicator: TA98, Metabolic Activation: NONE, Method: PREINCUBATION
[2] abbreviates: Test System: AMES SALMONELLA TYPHIMURIUM, Strain/Indicator: TA98, Metabolic Activation: NONE, Method: STANDARD PLATE.
The mark [3] stands for this setting: Test System: AMES SALMONELLA TYPHIMURIUM, Strain/Indicator: TA100, Metabolic Activation: NONE, Method: PREINCUBATION
The mark [4] stands for this setting: Test System: AMES SALMONELLA TYPHIMURIUM, Strain/Indicator: TA100, Metabolic Activation: NONE, Method: STANDARD PLATE.
Setting [5] is: Test System: AMES SALMONELLA TYPHIMURIUM, Strain/Indicator: TA1537, Metabolic Activation: NONE, Method: PREINCUBATION
Setting [6] is: Test System: AMES SALMONELLA TYPHIMURIUM, Strain/Indicator: TA98, Metabolic Activation: RAT, LIVER, S-9, AROCLOR 1254, Method: STANDARD PLATE.

Structures are written as SMILES. Calls of active or inactive are those of the source. How the calls were made is not given here.

As to `CC1=CC(C)(C)Nc2ccccc21`, the mutagenic call is “inactive; negative” (Test System: AMES SALMONELLA TYPHIMURIUM, Strain/Indicator: TA98, Metabolic Activation: HAMSTER, LIVER, S-9, AROCLOR 1254 (10%), Method: PREINCUBATION); “inactive; negative” under setting [1]; “inactive; negative” under setting [2]; “inactive; negative” (Test System: AMES SALMONELLA TYPHIMURIUM, Strain/Indicator: TA98, Metabolic Activation: RAT, LIVER, S-9, AROCLOR 1254 (10%), Method: PREINCUBATION); “inactive; negative” (Test System: AMES SALMONELLA TYPHIMURIUM, Strain/Indicator: TA98, Metabolic Activation: S-9, Method: STANDARD PLATE); “inactive; negative” (Test System: AMES SALMONELLA TYPHIMURIUM, Strain/Indicator: TA100, Metabolic Activation: HAMSTER, LIVER, S-9, AROCLOR 1254 (10%), Method: PREINCUBATION). The mutagenic call under setting [3] was “inactive; negative”; the mutagenic call under setting [4] was “inactive; negative”; the mutagenic call (Test System: AMES SALMONELLA TYPHIMURIUM, Strain/Indicator: TA100, Metabolic Activation: RAT, LIVER, S-9, AROCLOR 1254 (10%), Method: PREINCUBATION) is “inactive; negative”; the mutagenic call (Test System: AMES SALMONELLA TYPHIMURIUM, Strain/Indicator: TA100, Metabolic Activation: S-9, Method: STANDARD PLATE) was “inactive; negative”; the mutagenic call (Test System: AMES SALMONELLA TYPHIMURIUM, Strain/Indicator: TA1535, Metabolic Activation: HAMSTER, LIVER, S-9, AROCLOR 1254 (10%), Method: PREINCUBATION) is “inactive; negative”; the mutagenic call (Test System: AMES SALMONELLA TYPHIMURIUM, Strain/Indicator: TA1535, Metabolic Activation: NONE, Method: PREINCUBATION) was “inactive; negative”. Also, the mutagenic call (Test System: AMES SALMONELLA TYPHIMURIUM, Strain/Indicator: TA1535, Metabolic Activation: RAT, LIVER, S-9, AROCLOR 1254 (10%), Method: PREINCUBATION) was “inactive; negative”; the mutagenic call (Test System: AMES SALMONELLA TYPHIMURIUM, Strain/Indicator: TA1537, Metabolic Activation: HAMSTER, LIVER, S-9, AROCLOR 1254 (10%), Method: PREINCUBATION) was “inactive; negative”; the mutagenic call under setting [5] is “inactive; negative”; the mutagenic call (Test System: AMES SALMONELLA TYPHIMURIUM, Strain/Indicator: TA1537, Metabolic Activation: RAT, LIVER, S-9, AROCLOR 1254 (10%), Method: PREINCUBATION) was “inactive; negative”.

Take `CCCc1cc2ccccc2c2ccc3c(c12)C1OC1C(O)C3O` (stereo unspecified): the mutagenic call under setting [3] is “inactive; negative”.

As to `COc1c(CO)c(O)cc2c1C(=O)c1ccccc1C2=O`, the mutagenic call under setting [1] was “inactive; negative”; the mutagenic call (Test System: AMES SALMONELLA TYPHIMURIUM, Strain/Indicator: TA98, Metabolic Activation: RAT, LIVER, S-9, PCB, Method: PREINCUBATION) is “inactive; negative”; the mutagenic call under setting [3] is “active; positive”; the mutagenic call (Test System: AMES SALMONELLA TYPHIMURIUM, Strain/Indicator: TA100, Metabolic Activation: RAT, LIVER, S-9, PCB, Method: PREINCUBATION) was “active; positive”.

`OC/C=C/c1ccccc1`: the mutagenic call is “inactive; negative” (Test System: AMES SALMONELLA TYPHIMURIUM, Strain/Indicator: TA98, Metabolic Activation: HAMSTER, LIVER, S-9, AROCLOR 1254 (2.5-20%), Method: PREINCUBATION); “inactive; negative” (Test System: AMES SALMONELLA TYPHIMURIUM, Strain/Indicator: TA98, Metabolic Activation: HAMSTER, LIVER, S-9, AROCLOR 1254, Method: STANDARD PLATE); “inactive; negative” under setting [2]; “inactive; negative” under setting [6]; “inactive; negative” (Test System: AMES SALMONELLA TYPHIMURIUM, Strain/Indicator: TA100, Metabolic Activation: HAMSTER, LIVER, S-9, AROCLOR 1254 (2.5-20%), Method: PREINCUBATION); “inactive; negative” (Test System: AMES SALMONELLA TYPHIMURIUM, Strain/Indicator: TA100, Metabolic Activation: HAMSTER, LIVER, S-9, AROCLOR 1254, Method: STANDARD PLATE). Further, the mutagenic call was “inactive; negative” under setting [4]; “inactive; negative” (Test System: AMES SALMONELLA TYPHIMURIUM, Strain/Indicator: TA100, Metabolic Activation: RAT, LIVER, S-9, AROCLOR 1254, Method: STANDARD PLATE); “inactive; negative” (Test System: AMES SALMONELLA TYPHIMURIUM, Strain/Indicator: TA102, Metabolic Activation: HAMSTER, LIVER, S-9, AROCLOR 1254, Method: PREINCUBATION); “inactive; negative” (Test System: AMES SALMONELLA TYPHIMURIUM, Strain/Indicator: TA102, Metabolic Activation: NONE, Method: PREINCUBATION); “inactive; negative” (Test System: AMES SALMONELLA TYPHIMURIUM, Strain/Indicator: TA102, Metabolic Activation: RAT, LIVER, S-9, AROCLOR 1254, Method: PREINCUBATION); “inactive; negative” (Test System: AMES SALMONELLA TYPHIMURIUM, Strain/Indicator: TA1535, Metabolic Activation: HAMSTER, LIVER, S-9, AROCLOR 1254, Method: STANDARD PLATE). For the same compound, the mutagenic call was “inactive; negative” (Test System: AMES SALMONELLA TYPHIMURIUM, Strain/Indicator: TA1535, Metabolic Activation: NONE, Method: STANDARD PLATE); “inactive; negative” (Test System: AMES SALMONELLA TYPHIMURIUM, Strain/Indicator: TA1535, Metabolic Activation: RAT, LIVER, S-9, AROCLOR 1254, Method: STANDARD PLATE); “inactive; negative” (Test System: AMES SALMONELLA TYPHIMURIUM, Strain/Indicator: TA1537, Metabolic Activation: HAMSTER, LIVER, S-9, AROCLOR 1254, Method: STANDARD PLATE); “inactive; negative” under setting [5]; “inactive; negative” (Test System: AMES SALMONELLA TYPHIMURIUM, Strain/Indicator: TA1537, Metabolic Activation: NONE, Method: STANDARD PLATE); “inactive; negative” (Test System: AMES SALMONELLA TYPHIMURIUM, Strain/Indicator: TA1537, Metabolic Activation: RAT, LIVER, S-9, AROCLOR 1254, Method: STANDARD PLATE). The mutagenic call is, setting by setting: (Test System: AMES SALMONELLA TYPHIMURIUM, Strain/Indicator: TA1538, Metabolic Activation: HAMSTER, LIVER, S-9, AROCLOR 1254, Method: STANDARD PLATE) “inactive; negative”; (Test System: AMES SALMONELLA TYPHIMURIUM, Strain/Indicator: TA1538, Metabolic Activation: NONE, Method: STANDARD PLATE) “inactive; negative”; (Test System: AMES SALMONELLA TYPHIMURIUM, Strain/Indicator: TA1538, Metabolic Activation: RAT, LIVER, S-9, AROCLOR 1254, Method: STANDARD PLATE) “inactive; negative”; (Test System: MOUSE LYMPHOMA, Strain/Indicator: L5178Y (TK+/TK-), Metabolic Activation: NONE, Method: SUSPENSION/PLATE) “active; positive. reevaluation of results: inconclusive”; (Test System: MOUSE LYMPHOMA, Strain/Indicator: L5178Y (TK+/TK-), Metabolic Activation: RAT, LIVER, S-9, AROCLOR 1254, Method: SUSPENSION/PLATE) “active; positive. reevaluation of results: positive”; (Test System: Mouse lymphoma, Strain/Indicator: L5178Y (tk+/tk-), Metabolic Activation: None, Method: Suspension/plate) “inactive; negative”. Besides, the mutagenic call (Test System: Mouse lymphoma, Strain/Indicator: L5178Y (tk+/tk-), Metabolic Activation: Rat, Liver, S-9, Aroclor 1254, Method: Suspension/plate) is “inactive; negative”.

Take `C1=c2ccccc2=C2Cc3ccccc3C3=C4OC4=C1C32` (stereo unspecified): the mutagenic call was “active; positive” under setting [2] and “active; positive” under setting [6].

Turning to `[Cl-].[Cl-].[NH2-].[NH2-].[NH2-].[NH2-].[Pt+2]`, the mutagenic call under setting [1] is “inactive; negative”; the mutagenic call (Test System: AMES SALMONELLA TYPHIMURIUM, Strain/Indicator: TA98, Metabolic Activation: RAT, LIVER, S-9, AROCLOR 1254, Method: PREINCUBATION) was “inactive; negative”; the mutagenic call under setting [3] was “inactive; negative”; the mutagenic call (Test System: AMES SALMONELLA TYPHIMURIUM, Strain/Indicator: TA100, Metabolic Activation: RAT, LIVER, S-9, AROCLOR 1254, Method: PREINCUBATION) was “inactive; negative”.

As for `C=CCc1ccccc1N.[Cl-].[Cl-].[Pd+2]`, the mutagenic call (Test System: AMES SALMONELLA TYPHIMURIUM, Strain/Indicator: TA92, Metabolic Activation: NONE, Method: STANDARD PLATE) was “inactive; negative”; the mutagenic call under setting [2] is “inactive; negative”; the mutagenic call under setting [4] was “active; positive”; the mutagenic call (Test System: AMES SALMONELLA TYPHIMURIUM, Strain/Indicator: TA2410, Metabolic Activation: NONE, Method: STANDARD PLATE) was “active; positive”.
